The values below come from patent US4143041A, “4'-Deoxyvincristine and related compounds” (Eli Lilly and Company, priority 1977, dated 1979).

Counter-ions that a name gives are not always drawn.

For data set [1], the system named is experimental malignancies. As to conditions: cited from earlier work.
The subject of another data set is B16 melanoma. The data set is described as follows: transplanted B16 melanoma in mice (survival). The format is in vivo. As to conditions: IP. As for the experimental part: (§1) The compounds of this invention, as represented by Formula II above, particularly those in which R^1 is acetoxy, are powerful anti-tumor agents.
(§2) The following table -- Table 1 -- gives the results of several experiments in which transplanted tumors in mice were treated successfully with a compound of this invention.
(§3) In the table, column 1 gives the name of the compound; column 2, the transplanted tumor; column 3, the dose level or dose level range and the number of days the dosage was administered; column 4, the route of administration, and column 5, the percent inhibition of tumor growth or percent prolongation of survival time, e.g., B16. (ROS is an abbreviation of Ridgeway osteogenic sarcoma; GLS for Gardner lymphosarcoma; P1534(J) and L1210 are leukemias; CA755 is an adenocarcinoma; and B16 is a melanoma.).
**Delayed treatment-dosed 5th, 9th and 13th days

In data set [2] the test system is GLS (Gardner lymphosarcoma). As to the kind of experiment: transplanted Gardner lymphosarcoma (GLS) in mice. The format is in vivo. On the procedure: as §1, §2, §3
The next data set relates to experimental tumors. As to conditions: cited from earlier work.
Data set [3] concerns 755 (CA755 adenocarcinoma). As to the kind of experiment: transplanted CA755 adenocarcinoma in mice. Format: in vivo. As to conditions: IP. As for the experimental part:
as §1, §2, §3

The conditions of data set [4]: cited from earlier work.
In another data set the test system is P1534(J) leukemia. As to the kind of experiment: transplanted P1534(J) leukemia in mice. Format: in vivo. As to conditions: IP. On the procedure: as §1, §2, §3
The next data set in a line: pKa' in 66% DMF. The format is physicochemical.
In a further data set the test system is L1210 leukemia. The data set is described as follows: transplanted L1210 leukemia in mice. Format: in vivo. As to conditions: IP. On the procedure: as §1, §2, §3
For data set [5], the system named is ROS (Ridgeway osteogenic sarcoma). The data set is described as follows: transplanted Ridgeway osteogenic sarcoma (ROS) in mice. The note with it: IP. The format is in vivo. As for the experimental part:
as §1, §2, §3

The subject of a further data set is transplanted tumors. As to the kind of experiment: anti-tumor / oncolytic activity against transplanted tumors in mice. The format is in vivo.
From the text: as §1

As to `CCC1(O)CN2CCc3c([nH]c4ccccc34)C(C(=O)OC)(c3cc4c(cc3OC)N(C)C3C(O)(C(=O)OC)C(OC(C)=O)C5(CC)C=CCN6CCC43C65)CC(C2)C1O` (stereo not drawn) [vincadioline], in data set [1], the “activity in the treatment of experimental malignancies in animals” value (“activity in the treatment” for short) is “active”.

On to `CC[C@]1(O)C[C@@H]2CN(CCc3c([nH]c4ccccc34)[C@@](C(=O)OC)(c3cc4c(cc3OC)N(C)[C@H]3[C@@](O)(C(=O)OC)[C@H](OC(C)=O)[C@]5(CC)C=CCN6CC[C@]43[C@@H]65)C2)C1` [vincaleukoblastine], for which the “activity in the treatment” value in data set [1] is reported as “active”.

In the case of `CC[C@H]1C[C@@H]2CN(CCc3c([nH]c4ccccc34)[C@@](C(=O)OC)(c3cc4c(cc3OC)N(C=O)[C@H]3[C@@](O)(C(=O)OC)[C@H](O)[C@]5(CC)C=CCN6CC[C@]43[C@@H]65)C2)C1` [4'-Deoxy-4-desacetyl 1-desmethyl-1-formyl-leurosidine sulfate], the “Percent Inhibition or Prolongation of Survival Time” value was 31 -62% in the data set with B16 melanoma (0.15-0.6 mg./kg. × 3 days, **delayed treatment, dosed 5th, 9th and 13th days); 95% in data set [2] (0.18 mg./kg. × 3 days, route not given); 94-100% in [2] (0.25-0.40 mg./kg. × 3 days, route not given). Also, in [2] (0.6 mg./kg. × 3 days, route not given), the “Percent Inhibition or Prolongation of Survival Time (Toxic)” value is “Toxic”.

For `CCC12CN3CCc4c([nH]c5ccccc45)[C@@](C(=O)OC)(c4cc5c(cc4OC)N(C=O)[C@H]4[C@@](O)(C(=O)OC)[C@H](OC(C)=O)[C@]6(CC)C=CCN7CC[C@]54[C@@H]76)C[C@@H](C3)C1O2` (stereo partly drawn) [leuroformine, N-formylleurosine], the “activity in the treatment” value in [1] is on record as “active”.

With `CC[C@H]1C[C@@H]2CN(CCc3c([nH]c4ccccc34)[C@@](C(=O)OC)(c3cc4c(cc3OC)N(C)[C@H]3[C@@](O)(C(=O)OC)[C@H](OC(C)=O)[C@]5(CC)C=CCN6CC[C@]43[C@@H]65)C2)C1` [deoxy VLB "B"], the “activity in the treatment” value in [1] is reported as “active”. The “oncolytic activity in experimental tumors in mice” value (from here on “oncolytic activity … in mice”) in the data set with experimental tumors is reported as “lack reproducible activity”.

Consider `CC[C@@H]1C[C@@H]2CN(CCc3c([nH]c4ccccc34)[C@@](C(=O)OC)(c3cc4c(cc3OC)N(C=O)[C@H]3[C@@](O)(C(=O)OC)[C@H](OC(C)=O)[C@]5(CC)C=CCN6CC[C@]43[C@@H]65)C2)C1` [4'-Deoxyvincristine sulfate, 4'-deoxyvincristine sulfate], for which the “Percent Inhibition or Prolongation of Survival Time” value in the data set on B16 melanoma (0.30-0.9 mg./kg. × 3 days, *1 or more indefinite survivors) is on record as 36-143%; in data set [3] (0.06-0.13 mg./kg. × 9-10 days) it was 15-100%; in data set [3] (0.1-0.3 mg./kg. × 3 days), 36-100%; in data set [2] (0.18-0.25 mg./kg. × 3 days, IP) it was 62-94%. Further, the “Percent Inhibition or Prolongation of Survival Time (Toxic)” value in data set [3] (0.9 mg./kg. × 3 days) was “Toxic”; in data set [3] (0.25-1.8 mg./kg. × 9-10 days), “Toxic”; in data set [2] (0.4-0.6 mg./kg. × 3 days, IP) it was “Toxic”.

`CC[C@@]1(O)C[C@@H]2CN(CCc3c([nH]c4ccccc34)[C@@](C(=O)OC)(c3cc4c(cc3OC)N(C)[C@H]3[C@@](O)(C(=O)OC)[C@H](OC(C)=O)[C@]5(CC)C=CCN6CC[C@]43[C@@H]65)C2)C1` [leurosidine]: the “activity in the treatment” value in data set [1] is reported as “active”.

Take `CCC12CN3CCc4c([nH]c5ccccc45)[C@@](C(=O)OC)(c4cc5c(cc4OC)N(C)[C@H]4[C@@](O)(C(=O)OC)[C@H](OC(C)=O)[C@]6(CC)C=CCN7CC[C@]54[C@@H]76)C[C@@H](C3)C1O2` (stereo partly drawn) [leurosine]: the “activity in the treatment” value in data set [1] is “active”. In addition, the “oncolytic activity … in mice” value in the data set on experimental tumors is given as “demonstrated oncolytic activity”. Further, the clinical response result in [4] is “limited”.

As a reminder, the pKa is the negative logarithm of the acid dissociation constant. A high value points to a weaker acid or stronger base. For the molecule `CC[C@H]1C[C@@H]2CN(CCc3c([nH]c4ccccc34)[C@@](C(=O)OC)(c3cc4c(cc3OC)N(C=O)[C@H]3[C@@](O)(C(=O)OC)[C@H](OC(C)=O)[C@]5(CC)C=CCN6CC[C@]43[C@@H]65)C2)C1` [4'-deoxy-1-formylleurosidine], the “Percent Inhibition or Prolongation of Survival Time (Toxic)” value (in the data set on B16 melanoma (0.9 mg./kg. × 3 days); in [3] (0.2-0.3 mg./kg. × 10 days); in the data set on P1534(J) leukemia (0.18 mg./kg. × 10 days)) was “Toxic” each time. The “Percent Inhibition or Prolongation of Survival Time” value was 98-146% in the data set with B16 melanoma (0.25-0.6 mg./kg. × 3 days); 47% in data set [3] (0.25 mg./kg. × 3 days); 73% in data set [3] (0.4 mg./kg. × 3 days); 54% in data set [3] (0.6 mg./kg. × 3 days); 8-72% in [3] (0.03-0.09 mg./kg. × 9 days); 33-93% in data set [3] (0.06-0.135 mg./kg. × 10 days). Besides, the “Percent Inhibition or Prolongation of Survival Time” value is on record as 9-46% in the data set on P1534(J) leukemia (0.08-0.18 mg./kg. × 10 days) and 73-100% in [2] (0.25-0.6 mg./kg. × 3 days, IP). This molecule also registered a pKa in the data set “pKa' in 66% DMF” of 9.

Regarding `CC[C@H]1C[C@@H]2CN(CCc3c([nH]c4ccccc34)[C@@](C(=O)OC)(c3cc4c(cc3OC)N(C=O)[C@H]3[C@@](O)(C(=O)OC)[C@H](OC(C)=O)[C@]5(CC)C=CCN6CC[C@]43[C@@H]65)C2)C1` [4'-Deoxy-1-formylleurosidine sulfate], the “Percent Inhibition or Prolongation of Survival Time” value in [2] (0.18 mg./kg. × 3 days, IP) worked out at 100%; in data set [2] (0.4 mg./kg. × 3 days, IP), 100%; with L1210 leukemia (0.25 mg./kg. × 3 days, *1 or more indefinite survivors) it was 65%; in [5] (0.18 mg./kg. × 3 days), 93%; in data set [5] (0.4 mg./kg. × 3 days), 100%. The “Percent Inhibition or Prolongation of Survival Time (Toxic)” value in [2] (0.25 mg./kg. × 3 days, IP) is recorded as “Toxic”; in data set [2] (0.6 mg./kg. × 3 days, IP), “Toxic”; in the data set with L1210 leukemia (0.4-0.6 mg./kg. × 3 days), “Toxic”; in data set [5] (0.25 mg./kg. × 3 days) it was “Toxic”.

On to `CCC1(O)CN2CCc3c([nH]c4ccccc34)C(C(=O)OC)(c3cc4c(cc3OC)N(C)C3C(O)(C(=O)OC)CC5(CC)C=CCN6CCC43C65)CC(C2)C1O` (stereo not drawn) [4-desacetoxy-3'-hydroxyvinblastine], for which the “activity in the treatment” value in data set [1] is recorded as “active”.

On to `CC[C@@H]1C[C@@H]2CN(CCc3c([nH]c4ccccc34)[C@@](C(=O)OC)(c3cc4c(cc3OC)N(C)[C@H]3[C@@](O)(C(=O)OC)[C@H](OC(C)=O)[C@]5(CC)C=CCN6CC[C@]43[C@@H]65)C2)C1` [deoxy VLB "A"], for which the “activity in the treatment” value in data set [1] is “active”. In the data set on experimental tumors, the “oncolytic activity … in mice” value is “lack reproducible activity”.

Regarding `CC[C@]1(O)C[C@@H]2CN(CCc3c([nH]c4ccccc34)[C@@](C(=O)OC)(c3cc4c(cc3OC)N(C=O)[C@H]3[C@@](O)(C(=O)OC)[C@H](OC(C)=O)[C@]5(CC)C=CCN6CC[C@]43[C@@H]65)C2)C1` [leurocristine], in [1], the “activity in the treatment” value is “active”.

In the case of `CC[C@]1(O)C[C@@H]2CN(CCc3c([nH]c4ccccc34)[C@@](C(=O)OC)(c3cc4c(cc3OC)N(C)[C@@H]3[C@]45CCN4CC=C[C@@](CC)(C[C@]3(O)C(=O)OC)[C@H]45)C2)C1` [4-desacetoxy vinblastine], the “activity in the treatment” value in data set [1] is “active”.

Consider `CC[C@H]1C[C@@H]2CN(CCc3c([nH]c4ccccc34)[C@@](C(=O)OC)(c3cc4c(cc3OC)N(C)[C@H]3[C@@](O)(C(=O)OC)[C@H](O)[C@]5(CC)C=CCN6CC[C@]43[C@@H]65)C2)C1` [4'-deoxy-4-desacetyl-leurosidine sulfate, 4'-deoxy-4-desacetylleurosidine sulfate], for which the “Percent Inhibition or Prolongation of Survival Time” value is reported as 77% with B16 melanoma (0.15 mg./kg. × 3 days, **delayed treatment, dosed 5th, 9th and 13th days); 103% in the data set on B16 melanoma (0.3 mg./kg. × 3 days, **delayed treatment, dosed 5th, 9th and 13th days); 32% in data set [3] (0.25 mg./kg. × 3 days); 37% in [3] (0.4 mg./kg. × 3 days); 63% in data set [2] (0.6 mg./kg. × 3 days, IP). Further, the “Percent Inhibition or Prolongation of Survival Time (Toxic)” value is “Toxic” with B16 melanoma (0.6 mg./kg. × 3 days, **delayed treatment, dosed 5th, 9th and 13th days); “Toxic” in [3] (0.6 mg./kg. × 3 days); “Toxic” in data set [2] (0.4 mg./kg. × 3 days, IP); “Toxic” in data set [2] (0.9 mg./kg. × 3 days, IP).

For `CCC1(O)CN2CCc3c([nH]c4ccccc34)C(C(=O)OC)(c3cc4c(cc3OC)N(C)C3C(O)(C(=O)OC)C(OC(C)=O)C5(CC)C=CCN6CCC43C65)CC(O)(C2)C1` (stereo not drawn) [leurocolombine], the “activity in the treatment” value in data set [1] is reported as “active”.

As for `CC[C@H]1C[C@@H]2CN(CCc3c([nH]c4ccccc34)[C@@](C(=O)OC)(c3cc4c(cc3OC)N(C)[C@H]3[C@@](O)(C(=O)OC)[C@H](O)[C@]5(CC)C=CCN6CC[C@]43[C@@H]65)C2)C1` [4'-deoxy-4-desacetylleurosidine], the “anti-tumor / oncolytic activity” value in the data set with transplanted tumors is given as “oncolytic agent”.
